Source: patent publication US11078245B2, “Colon and pancreas cancer peptidomimetics” (PRECISION BIOLOGICS, INC., priority 2010, dated 2021)

Tests used:
[1] = tested on: CFPAC1 culture supernatant; assay: Peptide competition ELISA on CFPAC1 culture supernatant-coated plates; assay type: binding, human
Source text: FIG. 15A is a bar graph showing the percent blocking of NEO-101 by peptides (identified by biopanning an M13 phage library) on CFPAC1 culture supernatant-coated plates. FIG. 15B is a bar graph of OD values showing blocking of NEO-101 by peptides (identified by biopanning an M13 phage library) on CFPAC1 culture supernatant-coated plates.
Next, the inhibition of NEO-101 beads binding to CFAC1 Cells (rosetted cells) by peptides 4-1-4C12 and 4-1-4C12-R2 was investigated, as shown in FIG. 14A. FIG. 14B was the results from positive control with 4B6 in competitive beads assay. […] Therefore, the peptide 4-1-4-C12 is a peptidomimetic of the NPC-1 epitope and may be used to elicit a NPC-1 specific antibodies.

CFPAC1 cells = assay: NEO-101-coupled Dynal beads rosette assay; assay type: cell-based, human; conditions: for Positive rosette cells (%): Dynal beads coupled with NEO-101, premixed with M13 clone
Protocol: The M13 clones identified by the biopanning were also immunoassayed using magnetic beads. Aliquots of 5 μl M13 phage (10^11/10 μl) were mixed with 10 μl NEO-101-coupled Dynal® beads at RT for 20 min on a rotator. CFPAC1 cells (30 μl of 10^6 cells/ml) were added and incubated at 4° C. for 30 min. Rosetted cells were counted (>8 beads/cell).

NEO-101 = assay: Biotinylated peptide binding ELISA; conditions: biotinylated peptide on NEO-101 coated plate
Protocol: To solve the poor binding of peptides to 96 well plate, peptides were biotinylated using EZ-link micro NHS Biotinylation kit (Pierce Cat #21955), and labeling efficiency checked by dot blot (50%). The biotinylated peptide binding was analyzed in ELISA by adding 100 μl/well of NEO-101 (1 μg/ml) in CBS buffer to 96 well plate and incubating at 4° C. overnight, followed by three washes with TBST (0.05% Tween). The solution was blocked with 200μ/of 1% milk in TBS at RT for 20 min. Aliquots of 100 μl peptide-biotin ([…]) in 0.1% milk-TBS were added, and incubated at RT of 2 hr, followed by three washes with TBST. Streptavidin-HRP (100 μl of 1:2000 diluted in 1:10 diluted blocking buffer) was added, and the wells incubated at RT for 1 hr, followed by three washed. TMB was then added, and the wells were read at 450 nm. Positive controls for NPC-1C binding used 4B6-biotin. The results are shown in FIG. 11, which indicates biotinylated peptides bind to NPC-1C coated plate.

Colon Ag = assay: ELISA of NEO-101 binding inhibition by peptides against Colon Ag; set-up: species or system human
Protocol: An ELISA analysis of the NEO-101 binding inhibition by peptide 4-1-3-C9 and 4-1-4-C12 against Colon Ag was conducted. Aliquots of 100 μl/well Colon Ag (3 μg/ml in CBS buffer) in 96 well plate were incubated at 4° C. overnight, and the wells washed three times with TBST (0.05% Tween). The wells were blocked with 200 μl of 1% milk at RT for 1 hour. A pre-mix of NEO-101-biotin and test peptide was added at 100 μl/well and incubated at RT of 1 hour, followed by three washes with TBST. Streptavidin-HRP (100 μl of 1:2000 dilution) was added and the reaction incubated at RT for 1 hour, and the wells washed three time. TMB was added, and the wells were read at 450 nm. The control was NEO-101-biotin.

NEO-101 antibody = assay: Immunofluorescence of 293T cells transfected with MUC5AC truncation constructs; assay type: cell-based; conditions: 2 μg/ml NEO-101 antibody
Protocol: Six truncation constructs were made representing C-terminal truncations of the full-length MUC5AC protein (SEQ ID NO: 36).
293T cells were cultured on FBS coated cover slips for 24 hours. Cells were transiently transfected with 2 μg of MUC5AC constructs of Table 8 with LIPOFECTAMINE®. Cells were grown for about 72 hours, fixed with about 4% PFA in PBS, washed with PBS, permeabilized with about 0.2% […] in PBS and washed with PBS. Cells were then blocked with about 1% BSA in PBS, and about 2 μg/ml NEO-101 antibody was added to sample wells and about 2 μg/ml of an Isotype control was added for 1 hour at room temp. Cells were washed with PBS and second anti human-FITC antibody (1:500) was added to all wells and to the second antibody control wells. Cells were washed and mounted on slides with DAPI hard mount. Cover slides were allowed to sit over night at about 4° C. Slides were visualized with a Nikon Eclipse Ti microscope with an Andor camera. At least 3 random fields were counted per transfection.

SLPDDWFRYINYSLPDDWFRYINY (NPC-1 epitope peptidomimetic) [Peptide 4-1-4C12-R2]
competition against bound CFPAC1 antigen with NEO-101 binding [1]: significant competition

YSHSSLPDDWFRYINYGGGS (NPC-1 epitope peptidomimetic) [Peptide 4-1-4-C12]
blocking of NEO-101-coupled beads binding to CFPAC1 cells (CFPAC1 cells): blocked | Positive rosette cells (%) (CFPAC1 cells): 0% | NEO-101 binding (NEO-101): Yes | Blocking of NEO-101 antibody binding to colon Ag (Colon Ag): Yes | competition against bound CFPAC1 antigen with NEO-101 binding [1]: higher inhibition in low concentration comparing with 4-1-3C9

YSHSWHTLPEKSLDENGGGS (NPC-1 epitope peptidomimetic) [Peptide 4-1-2-C5]
blocking of NEO-101-coupled beads binding to CFPAC1 cells (CFPAC1 cells): blocked | Positive rosette cells (%) (CFPAC1 cells): 0%

YSHSVHAIEDNWSPRGGGGS (NPC-1 epitope peptidomimetic) [Peptide 4-1-3-C11, reference compound]
Positive rosette cells (%) (CFPAC1 cells): 38% | NEO-101 binding (NEO-101): No | Blocking of NEO-101 antibody binding to colon Ag (Colon Ag): No

YSHSWHTLPESGEVTSGGGS (NPC-1 epitope peptidomimetic) [Peptide 4-1-3-C8]
blocking of NEO-101-coupled beads binding to CFPAC1 cells (CFPAC1 cells): blocked | Positive rosette cells (%) (CFPAC1 cells): 0% | NEO-101 binding (NEO-101): Yes | Blocking of NEO-101 antibody binding to colon Ag (Colon Ag): No

B1: Construct 1-85: C-terminal truncation construct of MUC5AC, SEQ ID NO: 45 (protein)
chain: ATMSVGRRKLALLWALALALACTTTHSQPVTRDCHLRCTWTKWFDVDFPSPGPHGGDKETYNNIIRSGEKICRRPEEITRLQCRA
modifications: MUC5AC truncation construct (85)
Binds NPC-1? (NEO-101 antibody): no binding

B2: 1-85 (protein)
chain: B1 chain
modifications: MUC5AC truncation construct (85)
Binds NPC-1? (NEO-101 antibody): No

B3: Construct 1-338: C-terminal truncation construct of MUC5AC, SEQ ID NO: 50 (protein)
chain: ATMSVGRRKLALLWALALALACTTTHSQPVTRDCHLRCTWTKWFDVDFPSPGPHGGDKETYNNIIRSGEKICRRPEEITRLQCRAESHPEVSIEHLGQVVQCSREEGLVCRNQDQQGPFKMCLNYEVRVLCCETPKGCPVTSTPVTAPSTPSGRATSPTQSTSSWQKSRTTTLVTTSTTSTPQTSTTSAPTTSTTSAPTTSTTSAPTTSTTSTPQTSISSAPTSSTTSAPTSSTISARTTSIISAPTTSTTSSPTTSTTSATTTSTTSAPTSSTTSTPQTSKTSAATSSTTSSSGTTPSPVTTTSTASVSKTSTSHVSVSKTTHSQPVTRCTHHHHHH
modifications: MUC5AC truncation construct (338)
Binds NPC-1? (NEO-101 antibody): binding activity

B4: 1-338 (protein)
chain: B3 chain
modifications: MUC5AC truncation construct (338)
Binds NPC-1? (NEO-101 antibody): Yes

B5: Construct 1-187: C-terminal truncation construct of MUC5AC, SEQ ID NO: 48 (protein)
chain: ATMSVGRRKLALLWALALALACTTTHSQPVTRDCHLRCTWTKWFDVDFPSPGPHGGDKETYNNIIRSGEKICRRPEEITRLQCRAESHPEVSIEHLGQVVQCSREEGLVCRNQDQQGPFKMCLNYEVRVLCCETPKGCPVTSTPVTAPSTPSGRATSPTQSTSSWQKSRTTTLVTTSTTSTPQTSTT
modifications: MUC5AC truncation construct (187)
Binds NPC-1? (NEO-101 antibody): binding activity

B6: 1-187 (protein)
chain: B5 chain
modifications: MUC5AC truncation construct (187)
Binds NPC-1? (NEO-101 antibody): Yes

B7: 1-136 (protein)
chain: ATMSVGRRKLALLWALALALACTTTHSQPVTRDCHLRCTWTKWFDVDFPSPGPHGGDKETYNNIIRSGEKICRRPEEITRLQCRAESHPEVSIEHLGQVVQCSREEGLVCRNQDQQGPFKMCLNYEVRVLCCETPK
modifications: MUC5AC truncation construct (136)
Binds NPC-1? (NEO-101 antibody): No

B8: Construct 1-289: C-terminal truncation construct of MUC5AC, SEQ ID NO: 49 (protein)
chain: ATMSVGRRKLALLWALALALACTTTHSQPVTRDCHLRCTWTKWFDVDFPSPGPHGGDKETYNNIIRSGEKICRRPEEITRLQCRAESHPEVSIEHLGQVVQCSREEGLVCRNQDQQGPFKMCLNYEVRVLCCETPKGCPVTSTPVTAPSTPSGRATSPTQSTSSWQKSRTTTLVTTSTTSTPQTSTTSAPTTSTTSAPTTSTTSAPTTSTTSTPQTSISSAPTSSTTSAPTSSTISARTTSIISAPTTSTTSSPTTSTTSATTTSTTSAPTSSTTSTPQTSKTSAATSS
modifications: MUC5AC truncation construct (289)
Binds NPC-1? (NEO-101 antibody): binding activity

B9: 1-289 (protein)
chain: B8 chain
modifications: MUC5AC truncation construct (289)
Binds NPC-1? (NEO-101 antibody): Yes

B10: 1-151 (protein)
chain: ATMSVGRRKLALLWALALALACTTTHSQPVTRDCHLRCTWTKWFDVDFPSPGPHGGDKETYNNIIRSGEKICRRPEEITRLQCRAESHPEVSIEHLGQVVQCSREEGLVCRNQDQQGPFKMCLNYEVRVLCCETPKGCPVTSTPVTAPSTP
modifications: MUC5AC truncation construct (151)
Binds NPC-1? (NEO-101 antibody): Yes
